PMC6973051, “Proline‐Rich Peptides with Improved Antimicrobial Activity against E. coli, K. pneumoniae, and A. baumannii” (Chemmedchem, 2019)
Ends that are not written are not given here.

Experiments:
[1] = tested on: S. aureus ATCC 25923; type: cell-based, Staphylococcus aureus
Description: (§1) Table 3 MIC and MBC of the native Bac5(1–17) (wt) and selected Bac5‐derivatives on pathogenic and reference bacterial strains. | column: MBC (μM) / wt; MBC (μM) / 258; MBC (μM) / 272; MBC (μM) / 278; MBC (μM) / 281; MBC (μM) / 291

[2] = tested on: A. baumannii ATCC 19606; type: cell-based, Acinetobacter baumannii
Description: as §1

[3] = tested on: E. coli BW25113; type: cell-based, Escherichia coli
Description: as §1

[4] = tested on: E. coli EURL‐VTEC C07 STEC:O157; type: cell-based, Escherichia coli; conditions: EURL‐VTEC C07 STEC:O157, 18 h
Description: (§2) The following bacterial strains were used: Escherichia coli BW25113, E. coli BW25113ΔsbmA (JW0368‐1, KEIO collection21); Acinetobacter baumannii ATCC 19606, Klebsiella pneumoniae ATCC 700603, Pseudomonas aeruginosa ATCC 27853 and Staphylococcus aureus ATCC 25923. The pathogenic E. coli EURL‐VTEC A07, E. coli EURL‐VTEC C07, E. coli SSI‐NN14, E. coli EA22, E. coli SSI‐OO15 and E. coli C679‐12 strains were generously provided by the European Union Reference Laboratory for E. coli, Department of Food Safety, Nutrition and Veterinary Public Health, Istituto Superiore di Sanità, Rome, Italy. All the strains were grown overnight in Müller‐Hinton broth (MHB, Difco) at 37 °C, with shaking (140 rpm). The day after, the overnight bacterial cultures were diluted approx. 1 : 40 in fresh MHB and incubated at 37 °C with shaking (140 rpm) until an OD600nm of ≈0.3 was reached. E. coli BW25113ΔsbmA was grown in the presence of 50 μg mL^−1 kanamycin.
(§3) Peptides were diluted in 100 μL of MHB to the concentration of 128 μM, dispensed in the first wells of a 96‐wells microtiter plate (round‐bottom) and serially two‐fold diluted with MHB into successive wells in a final volume of 50 μl. Subsequently, 50 μL of a bacterial suspension (5×10^5 CFU mL^−1) were added to each well, halving the final concentration of bacteria and peptides. Bacteria were added to MHB only as bacterial growth‐control, whereas 100 μl of MHB were used to check the medium sterility. The plate was incubated overnight at 37 °C (≈18 hours) and sealed with parafilm to minimise evaporation. The MIC was calculated as the first clear well without bacterial growth. If barely detectable growth was present, the OD600nm of the plate was measured by a multiplate reader Tecan (software Sunrise). The MIC was then calculated as the well whose OD620 was≤1 % of that of the untreated growth control.

[5] = tested on: E. coli EA22 ETEC; type: cell-based, Escherichia coli; conditions: 18 h
Description: as §2, §3

[6] = tested on: E. coli EURL‐VTEC A07 EPEC:O111; type: cell-based, Escherichia coli; conditions: EURL‐VTEC A07 EPEC:O111, 18 h
Description: as §2, §3

[7] = tested on: E. coli BW25113; type: cell-based, Escherichia coli; conditions: BW25113, 18 h
Description: as §2, §3

[8] = tested on: E. coli SSI‐OO15 EIEC; type: cell-based, Escherichia coli; conditions: 18 h
Description: as §2, §3

[9] = tested on: E. coli C679‐12 EAEC:0104; type: cell-based, Escherichia coli; conditions: C679‐12 EAEC:0104, 18 h
Description: as §2, §3

[10] = tested on: P. aeruginosa ATCC 27853; type: cell-based, Pseudomonas aeruginosa
Description: as §1

[11] = tested on: S. aureus ATCC 25923; type: cell-based, Staphylococcus aureus; conditions: ATCC 25923, 18 h
Description: as §2, §3

[12] = tested on: K. pneumoniae ATCC 700603; type: cell-based, Klebsiella pneumoniae
Description: as §1

[13] = tested on: A. baumannii ATCC 19606; type: cell-based, Acinetobacter baumannii; conditions: ATCC 19606, 18 h
Description: as §2
Peptides were diluted in 100 μL of MHB to the concentration of 128 μM, dispensed in the first wells of a 96‐wells microtiter plate (round‐bottom) and serially two‐fold diluted with MHB into successive wells in a final volume of 50 μl. […] The MIC was calculated as the first clear well without bacterial growth. If barely detectable growth was present, the OD600nm of the plate was measured by a multiplate reader Tecan (software Sunrise). […]

[14] = tested on: P. aeruginosa ATCC 27853; type: cell-based, Pseudomonas aeruginosa; conditions: ATCC 27853, 18 h
Description: as §2, §3

[15] = tested on: E. coli BW25113; test: Propidium iodide uptake by flow cytometry (membrane permeabilization); type: cell-based, Escherichia coli; conditions: 1 μM colistin (positive control), 30 min
Method: The bacterial cell integrity was controlled evaluating the propidium iodide (PI) uptake by flow‐cytometry on a Cytomics FC 500 (Beckman‐Coulter). 10^4 bacterial cells were acquired for each measurement. Mid‐log phase E. coli BW25113 cultures diluted to 10^6 CFU mL^−1 in MHB were exposed for 30 min to 4 μM and 16 μM peptides at 37 °C in the presence of 10 μg mL^−1 PI. Membrane permeabilization was calculated as the % PI‐positive cells, and membrane damage measuring the mean fluorescence intensity (MFI). An untreated control received sterile water instead of peptides. By contrast, bacteria were treated with 1 μM colistin as a permeabilizing control. Data are reported as the average ± standard deviation.

Q: Which results are given for RFRWPIRRPPIRPPFYR [compound 272]?
A: MBC [1]: >64 µM; MBC [2]: 16 µM; MBC [3]: 8 µM; MIC [4]: 8 µM; MIC [5]: 1 µM; MIC [6]: 2 µM; MIC [7]: 4 µM; MIC [8]: 1 µM; MIC [9]: 2 µM; MBC [10]: 64 µM; MIC [11]: >64 µM; MBC [12]: >64 µM

Q: For “RFRPPIRRPPIRPPFYP [wt, reference compound]”, which MBC [1] is on record?
A: >64 µM

Q: And the MBC [2]?
A: >64 µM

Q: And the MIC [13]?
A: >64 µM

Q: And the MBC [3]?
A: >64 µM

Q: And the MIC [4]?
A: >64 µM

Q: What about the MIC [5] of the same substance?
A: 2 µM

Q: And the MIC [6]?
A: 16 µM

Q: And the MIC [7]?
A: 16 µM

Q: And the MIC [8]?
A: 16 µM

Q: And the MIC [9]?
A: 16 µM

Q: What about the MBC [10] of the same substance?
A: >64 µM

Q: What about the MIC [11] of the same substance?
A: >64 µM

Q: What about the MBC [12] of the same substance?
A: >64 µM

Q: What about the MIC [14] of the same substance?
A: >64 µM

Q: With colistin as the substance, how does the “permeabilized bacterial cells (PI‐positive)” value [15] read?
A: ~100%

Q: Which MBC [1] does the source give for RFRPPIRRPPIRPPFYR [compound 258] here?
A: >64 µM

Q: What about the MBC [2] of the same substance?
A: 64 µM

Q: And the MIC [13]?
A: 64 µM

Q: And the MBC [3]?
A: 64 µM

Q: What about the MIC [4] of the same substance?
A: >64 µM

Q: What about the MIC [5] of the same substance?
A: 2 µM

Q: What about the MIC [6] of the same substance?
A: 8 µM

Q: What about the MIC [7] of the same substance?
A: 8 µM

Q: What about the MIC [8] of the same substance?
A: 4 µM

Q: And the MIC [9]?
A: 8 µM

Q: And the MBC [10]?
A: >64 µM

Q: And the MIC [11]?
A: >64 µM

Q: And the MBC [12]?
A: >64 µM

Q: What about the MIC [14] of the same substance?
A: >64 µM

Q: For RWRRPIRRRPIRPPFYW [compound 281], which MBC [1] is on record?
A: 32 µM

Q: What about the MBC [2] of the same substance?
A: 8 µM

Q: What about the MBC [3] of the same substance?
A: 2 µM

Q: What about the MIC [4] of the same substance?
A: 2 µM

Q: What about the MIC [5] of the same substance?
A: 2 µM

Q: And the MIC [6]?
A: 2 µM

Q: What about the MIC [7] of the same substance?
A: 2 µM

Q: And the MIC [8]?
A: 1 µM

Q: And the MIC [9]?
A: 2 µM

Q: And the MBC [10]?
A: 48 µM

Q: And the MBC [12]?
A: >64 µM

Q: With RWRRPIRRRPIRPPFWR [compound 291] as the substance, how does the MBC [1] read?
A: 64 µM

Q: What about the MBC [2] of the same substance?
A: 16 µM

Q: And the MBC [3]?
A: 8 µM

Q: And the MIC [4]?
A: 2 µM

Q: And the MIC [5]?
A: 1 µM

Q: What about the MIC [6] of the same substance?
A: 2 µM

Q: What about the MIC [7] of the same substance?
A: 2 µM

Q: What about the MIC [8] of the same substance?
A: 1 µM

Q: And the MIC [9]?
A: 1 µM

Q: And the MBC [10]?
A: >64 µM

Q: And the MBC [12]?
A: >64 µM

Q: RWRWPIRRPPIRPPFYR [compound 278] was tested. Which MBC [1] did it give?
A: >64 µM

Q: And the MBC [2]?
A: 8 µM

Q: And the MBC [3]?
A: 4 µM

Q: And the MIC [4]?
A: 8 µM

Q: And the MIC [5]?
A: 1 µM

Q: And the MIC [6]?
A: 1 µM

Q: What about the MIC [7] of the same substance?
A: 2 µM

Q: And the MIC [8]?
A: 1 µM

Q: What about the MIC [9] of the same substance?
A: 2 µM

Q: And the MBC [10]?
A: 64 µM

Q: What about the MIC [11] of the same substance?
A: >64 µM

Q: And the MBC [12]?
A: 48 µM

Q: What about the MIC [14] of the same substance?
A: 16 µM

Q: RFRPPIARPPIRPPFYPG-NH2 [R7A] was tested. Which MIC [7] did it give?
A: >64 µM

Q: AFRPPIRRPPIRPPFYPG-NH2 [R1A] was tested. Which MIC [7] did it give?
A: 48 µM

Q: Which MIC [7] does the source give for WFRPPIRRPPIRPPFYPG-NH2 [R1W] here?
A: 32 µM

Q: For RFRPPIRRPPIRPPFGPG-NH2 [Y16G], which MIC [7] is on record?
A: >64 µM

Q: RFRPPIRRPPIRPFFYPG-NH2 [P14F] was tested. Which MIC [7] did it give?
A: 32 µM

Q: How did the MIC [7] turn out when “RFRRPIRRPPIRPPFYPG-NH2 (C-terminus assumed) [P4R]” was run?
A: 4 µM

Q: How did the MIC [7] turn out when RFRPPIERPPIRPPFYPG-NH2 [R7E] was run?
A: >64 µM

Q: RFRPPIRRPPIRPPFYFG-NH2 [P17F] was tested. Which MIC [7] did it give?
A: 16 µM

Q: With RFRPPIRRPPIRPPFYEG-NH2 [P17E] as the substance, how does the MIC [7] read?
A: >64 µM

Q: RFWPPIRRPPIRPPFYPG-NH2 [R3W] was tested. Which MIC [7] did it give?
A: 32 µM

Q: With SFRPPIRRPPIRPPFYPG-NH2 [R1S] as the substance, how does the MIC [7] read?
A: >64 µM

Q: Which MIC [7] does the source give for RFRPPIFRPPIRPPFYPG-NH2 [R7F] here?
A: 32 µM

Q: Which MIC [7] does the source give for “RFRPPIRRSPIRPPFYPG-NH2 (C-terminus assumed) [P9S]” here?
A: 64 µM

Q: With “RFRPPSRRPPIRPPFYPG-NH2 (C-terminus assumed) [I6S]” as the substance, how does the MIC [7] read?
A: 64 µM

Q: Which MIC [7] does the source give for “RFRPSIRRPPIRPPFYPG-NH2 (C-terminus assumed) [P5S]” here?
A: 64 µM

Q: How did the MIC [7] turn out when “RWRRPIRRRPIRPPFYWG-NH2 [281 (SPOT form)]” was run?
A: 4 µM

Q: For “RSRPPIRRPPIRPPFYPG-NH2 (C-terminus assumed) [F2S]”, which MIC [7] is on record?
A: 64 µM

Q: “RFRPPIRRPPSRPPFYPG-NH2 (C-terminus assumed) [I11S]” was tested. Which MIC [7] did it give?
A: >64 µM

Q: How did the MIC [7] turn out when RFRPPIRRPPIGPPFYPG-NH2 [R12G] was run?
A: >64 µM

Q: RFRPPIRRPPISPPFYPG-NH2 [R12S] was tested. Which MIC [7] did it give?
A: >64 µM
